# Experimental data taken from patent publication US7550437B2, “Compositions for preventing and treating digestive organs diseases” (Fuso Pharmaceutical Industries, Ltd., priority 2000, dated 2009).
# No end group written: not given here.
# Assays:
# [1] = test system: rat gastric mucosal cells; test: Mucin secretion from rat gastric mucosal cells in vivo (galactose in gastric juice); conditions: amastatin 2.5 μmol/kg i.v., FIG. 2
# Protocol: The gastric pylorus was ligated by the same procedure as described above. Amastatin (2.5 μmol/kg) was administered intravenously immediately after the ligation, and SLp-NH2, LSp-NH2 or tcLP-NH2 was administered intravenously at 1 minute after administration of amastatin. 30 minutes after ligation, the rats was exsanguinated to kill, the stomach was isolated, and the gastric juice was collected. The collected sample of gastric juice was centrifuged at 10000×g for 30 min, and the supernatant was subjected to ultrafiltration with Millipore MC FREE (MW10000), followed by lyophilization. 2M TFA was added to the lyophilized sample, which was hydrolyzed under the conditions at 100° C. for 4 hours. Centrifugal separation was then performed and the supernatant was evaporated to dryness. 200 μL of 0.1 M Tris-HCl was added to the evaporated and dried sample to dissolve it. After 150 μL of a reaction solution containing galactose oxidase (1U), peroxidase (0.5 mU) and HPPA (0.25 μmol) was added to 50 μL of the sample and the mixture was incubated at 37° C. for 30 minutes, an amount of galactose was measured at an excitation wavelength of 320 nm and an fluorescence wavelength of 405 nm.
# [2] = test system: gastric acid secretion accelerated by carbachol; test: Carbachol-induced gastric acid secretion in pylorus-ligated rats; assay type: in vivo, rat; conditions: carbachol 60 μg/kg s.c., amastatin 2.5 μmol/kg i.v., FIG. 1
# Protocol: In an experiment, male Wistar rats at 5 weeks of age were used. After each animal was pre-bred for one week under the circumstance of a room temperature of 23±2° C., the humidity of 50±5%, and the light-and-darkness cycle (light term: from 07:00 to 19:00) of 12 hours, each animal was subjected to the experiment. Water and solid feed were supplied freely during the pre-breeding period and the experiment period.
# Moreover, the number of animals used in the experiment was 4-14 animals in all cases, and the results were shown by Mean±Standard Error. The significant difference test was performed by Tukey's multiple comparison test.
# A rat was anesthetized with ether after 18-24 hours of fasting, and an abdomen was incised by about 1 cm below a lower end of xiphoid sternum. Duodenum was pinched out of the opened abdominal hole, a part joining pylorus and duodenum was ligated, and the incised abdomen was sutured. After 30 minutes, the rat was exsanguinated to kill, the stomach was isolated, and gastric juice was collected. After the collected gastric juice was filtered, the acidity in the gastric juice was measured by a titration method. […]
# PAR-2 = target: T1, PAR-2 (Homo sapiens, UniProt P55085); conditions: literature statement; cited from earlier work
# T1 sequence (P55085 26-397): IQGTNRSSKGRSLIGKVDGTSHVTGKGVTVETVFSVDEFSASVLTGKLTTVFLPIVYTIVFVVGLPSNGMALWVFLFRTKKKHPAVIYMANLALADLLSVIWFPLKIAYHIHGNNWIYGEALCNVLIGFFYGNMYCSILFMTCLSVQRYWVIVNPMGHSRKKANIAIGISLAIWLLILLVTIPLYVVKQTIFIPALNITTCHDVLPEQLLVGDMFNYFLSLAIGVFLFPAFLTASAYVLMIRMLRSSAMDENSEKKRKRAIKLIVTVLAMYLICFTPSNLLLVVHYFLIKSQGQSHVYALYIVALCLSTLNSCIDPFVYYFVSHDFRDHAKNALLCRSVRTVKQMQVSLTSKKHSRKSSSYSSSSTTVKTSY
# [3] = test system: lesion in gastric mucosa by hydrochloric acid-ethanol; test: Hydrochloric acid-ethanol-induced gastric mucosa lesion; assay type: in vivo, rat; conditions: 0.25 and 0.5 μmol/kg i.v. 5 min before 60% ethanol containing 150 mM hydrochloric acid p.o.; amastatin 2.5 μmol/kg; FIG. 4
# Protocol: (§1) Preparation of ethanol- and hydrochloric acid-ethanol-induced gastric mucosa lesion was performed according to the method of Robert et al. (Robert, A. et al., Gastroenteral, 77, 433-443, 1979). That is, after the rats were fasted for 18 to 24 hours, 1 mL of 75% ethanol or 60% ethanol containing 150 mM hydrochloric acid was administered orally. Rats were exsanguinated to kill after 60 min and their stomaches were isolated. The isolated stomach was incised along with greater curvature, washed and fixed with 10% formaldehyde, and an area of gastric mucosa lesion was measured using Image analyzing software, Mac acpect (Mitani corporation, Chiba prefecture). SLp-NH2 was administered intravenously at 5 minutes before administration of 75% ethanol or 60% ethanol containing 150 mM hydrochloric acid. Amastatin (2.5 μmol/kg) was administered at 1 minute before administration of SLp-NH2.
# [4] = test system: gastric mucosa lesion by ethanol; test: Ethanol-induced gastric mucosa lesion; assay type: in vivo, rat; conditions: 0.25 and 0.5 μmol/kg i.v. 5 min before 75% ethanol p.o.; amastatin 2.5 μmol/kg; FIG. 3
# Protocol: as §1
# human PAR-1 = target: T2, human PAR-1 (Homo sapiens, UniProt P25116); conditions: literature statement; cited from earlier work
# T2 sequence (P25116 22-425): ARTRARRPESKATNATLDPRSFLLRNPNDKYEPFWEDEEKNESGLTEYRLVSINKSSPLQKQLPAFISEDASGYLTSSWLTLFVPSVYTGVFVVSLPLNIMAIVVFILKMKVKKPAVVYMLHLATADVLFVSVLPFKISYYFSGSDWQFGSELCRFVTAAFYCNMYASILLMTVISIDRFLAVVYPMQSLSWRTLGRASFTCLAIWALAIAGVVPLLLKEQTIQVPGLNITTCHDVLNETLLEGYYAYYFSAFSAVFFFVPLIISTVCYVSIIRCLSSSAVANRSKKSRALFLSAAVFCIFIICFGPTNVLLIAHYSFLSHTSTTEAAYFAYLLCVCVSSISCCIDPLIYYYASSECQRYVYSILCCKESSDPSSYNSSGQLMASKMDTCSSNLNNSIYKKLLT
substance,measurement,setting,value
"Leu-Ser-Ile-Gly-Arg-Leu-NH2 (LSIGRL-NH2) [LSp-NH2, control peptide for SLp-NH2]",effect on mucin secretion from rat gastric mucosal cells,"[1]; i.v., dose not given",did not affect mucin secretion
same,effect on gastric acid secretion accelerated by carbachol (amount of secreted gastric acid),[2]; 5 μmol/kg i.v.,did not affect
same,agonist activity on PAR-2,PAR-2,inactive substance
Ser-Leu-Ile-Gly-Arg-Leu-NH2 (SLIGRL-NH2) [SLp-NH2],effect on mucin secretion from rat gastric mucosal cells,[1]; 0.02 to 5 μmol/kg i.v.,accelerated dose-dependently
same,effect on gastric acid secretion accelerated by carbachol (amount of secreted gastric acid),[2]; 1.25 to 5 μmol/kg i.v.,inhibited dose-dependently
same,effect on gastric mucosa lesion (area) by hydrochloric acid-ethanol,[3],the protective effect was shown
same,effect on gastric mucosa lesion (area) by ethanol,[4],showed the protective effect
Ser-Phe-Leu-Leu-Arg-NH2 (SFLLR-NH2) [SFp-NH2],agonist activity on PAR-2,PAR-2,week agonist activity on PAR-2
same,agonist activity on human PAR-1,human PAR-1,agonist activity on human PAR-1
trans-cinnamoyl-Leu-Ile-Gly-Arg-Leu-ornithine-NH2 [tcLp-NH2],effect on mucin secretion from rat gastric mucosal cells,"[1]; i.v., dose not given",also accelerated the mucin secretion
same,agonist activity on PAR-2,PAR-2,specifically activate PAR-2
